Experimental data: patent US8324251B2, “Cyclic modulators of chemokine receptor activity” (Bristol-Myers Squibb Company, priority 2006, dated 2012)
Counter-ions that a name gives are not always drawn.

Molecular target: T1, CCR1 (Homo sapiens, UniProt P32246)
T1 construct: the THP-1 cell line, which expresses the endogenous CCR1 receptor; endogenous in cells; host or cells: THP-1 cells (human monocytic cell line)
T1 sequence (P32246 1-355): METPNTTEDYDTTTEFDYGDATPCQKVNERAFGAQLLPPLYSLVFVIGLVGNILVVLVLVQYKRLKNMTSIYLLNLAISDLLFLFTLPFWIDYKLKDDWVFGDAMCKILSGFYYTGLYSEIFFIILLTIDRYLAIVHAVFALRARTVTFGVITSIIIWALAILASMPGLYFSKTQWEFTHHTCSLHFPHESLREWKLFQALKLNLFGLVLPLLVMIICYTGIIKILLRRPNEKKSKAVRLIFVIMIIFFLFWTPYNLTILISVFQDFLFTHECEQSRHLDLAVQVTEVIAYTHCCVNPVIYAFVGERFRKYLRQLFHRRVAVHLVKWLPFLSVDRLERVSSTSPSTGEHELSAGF
Experiment: Antagonism of MIP-1α binding to human THP-1 cells (125-I MIP-1α radioligand binding)
Conditions: 125-I labeled human MIP-1α, THP-1 cells expressing endogenous CCR1; read-out: CCR1 Binding Ki (n = 1 unless otherwise noted)
Protocol: Antagonism of MIP-1α Binding to Human THP-1 Cells
Compounds of the present invention have activity in the antagonism of MIP-1α binding to human THP-1 cells described here.
Millipore filter plates (#MABVN1250) are treated with 100 μl of binding buffer (0.5% bovine serum albumin, 20 mM HEPES buffer and 5 mM magnesium chloride in RPMI 1640 media) for thirty minutes at room temperature. To measure binding, 50 μl of binding buffer, with or without a known concentration of compound, is combined with 50 μl of ^125-I labeled human MIP-1α (to give a final concentration of […] radioligand) and 50 μl of binding buffer containing 5×10^5 cells. Cells used for such binding assays can include the THP-1 cell line, which expresses the endogenous CCR1 receptor, or human peripheral blood mononuclear cells, isolated by Ficoll-Hypaque gradient centrifugation, or human monocytes (Weiner et al., J. Immunol. Methods, 1980, 36, 89). The mixture of compound, cells and radioligand is incubated at room temperature for thirty minutes. Plates are placed onto a vacuum manifold, vacuum applied, and the plates washed three times with binding buffer containing 0.5M NaCl. The plastic skirt is removed from the plate, the plate allowed to air dry, the wells punched out and counted. The percent inhibition of binding is calculated using the total counts obtained in the absence of any competing compound and the background binding determined by addition of 100 nM MIP-1α in place of the test compound.
Compounds of the present invention were tested in the assay described immediately above and the results, including results from the chiral separation of Example 1c, shown in Table 2 below were obtained.

| SMILES | Ki [nM] |
| --- | --- |
| NC(=O)Nc1cc(Cl)ccc1OCC(O)C1CCN(Cc2ccc(Cl)cc2)CC1 (racemic) [Example 1a, 1-(5-Chloro-2-(2-(1-(4-chlorobenzyl)piperidin-4-yl)-2-hydroxyethoxy)phenyl)urea, TFA salt] | 4.49 ± 1.15 |
| OC(COc1ccc(Cl)cc1)C1CCN(Cc2ccc(Cl)cc2)CC1 (racemic) [Example 1i, 1-(1-(4-Chlorobenzyl)piperidin-4-yl)-2-(4-chlorophenoxy)ethanol, TFA salt] | 111 |
| OC(COc1ccc(Cl)cc1)C1CCN(Cc2ccccc2)CC1 (racemic) [Example 1l, 1-(1-Benzylpiperidin-4-yl)-2-(4-chlorophenoxy)ethanol, TFA salt] | 6440 |
| NC(=O)Nc1cc(Cl)ccc1OCC(O)C1CCN(Cc2ccc(Cl)c(Cl)c2)CC1 (single isomer, unassigned) [1c Enantiomer 1] | 1500 |
| NC(=O)Nc1cc(Cl)ccc1OCC(O)C1CCN(Cc2ccc(Cl)c(Cl)c2)CC1 (single isomer, unassigned) [1c Enantiomer 2] | 6.1 ± 0.71 |
